From patent US20240109891A1, “NOVEL SUBSTITUTED TRICYCLIC AZA-HETEROCYCLES AS SOS1 INHIBITORS” (Viva Star Biosciences (Suzhou) Co., Ltd., priority 2021, published 2024)

How the values were obtained:
[1] = target: T1, KRAS G12D and SOS1 proteins (Homo sapiens, UniProt Q07889); experiment: KRAS-G12D/SOS1 binding assay (HTRF); settings: Tag1-SOS1 / Tag2-KRAS G12D, 10 μM GTP
T1 construct: purchased Cisbio 63ADK000CB17PEG
T1 sequence (Q07889 1-1333): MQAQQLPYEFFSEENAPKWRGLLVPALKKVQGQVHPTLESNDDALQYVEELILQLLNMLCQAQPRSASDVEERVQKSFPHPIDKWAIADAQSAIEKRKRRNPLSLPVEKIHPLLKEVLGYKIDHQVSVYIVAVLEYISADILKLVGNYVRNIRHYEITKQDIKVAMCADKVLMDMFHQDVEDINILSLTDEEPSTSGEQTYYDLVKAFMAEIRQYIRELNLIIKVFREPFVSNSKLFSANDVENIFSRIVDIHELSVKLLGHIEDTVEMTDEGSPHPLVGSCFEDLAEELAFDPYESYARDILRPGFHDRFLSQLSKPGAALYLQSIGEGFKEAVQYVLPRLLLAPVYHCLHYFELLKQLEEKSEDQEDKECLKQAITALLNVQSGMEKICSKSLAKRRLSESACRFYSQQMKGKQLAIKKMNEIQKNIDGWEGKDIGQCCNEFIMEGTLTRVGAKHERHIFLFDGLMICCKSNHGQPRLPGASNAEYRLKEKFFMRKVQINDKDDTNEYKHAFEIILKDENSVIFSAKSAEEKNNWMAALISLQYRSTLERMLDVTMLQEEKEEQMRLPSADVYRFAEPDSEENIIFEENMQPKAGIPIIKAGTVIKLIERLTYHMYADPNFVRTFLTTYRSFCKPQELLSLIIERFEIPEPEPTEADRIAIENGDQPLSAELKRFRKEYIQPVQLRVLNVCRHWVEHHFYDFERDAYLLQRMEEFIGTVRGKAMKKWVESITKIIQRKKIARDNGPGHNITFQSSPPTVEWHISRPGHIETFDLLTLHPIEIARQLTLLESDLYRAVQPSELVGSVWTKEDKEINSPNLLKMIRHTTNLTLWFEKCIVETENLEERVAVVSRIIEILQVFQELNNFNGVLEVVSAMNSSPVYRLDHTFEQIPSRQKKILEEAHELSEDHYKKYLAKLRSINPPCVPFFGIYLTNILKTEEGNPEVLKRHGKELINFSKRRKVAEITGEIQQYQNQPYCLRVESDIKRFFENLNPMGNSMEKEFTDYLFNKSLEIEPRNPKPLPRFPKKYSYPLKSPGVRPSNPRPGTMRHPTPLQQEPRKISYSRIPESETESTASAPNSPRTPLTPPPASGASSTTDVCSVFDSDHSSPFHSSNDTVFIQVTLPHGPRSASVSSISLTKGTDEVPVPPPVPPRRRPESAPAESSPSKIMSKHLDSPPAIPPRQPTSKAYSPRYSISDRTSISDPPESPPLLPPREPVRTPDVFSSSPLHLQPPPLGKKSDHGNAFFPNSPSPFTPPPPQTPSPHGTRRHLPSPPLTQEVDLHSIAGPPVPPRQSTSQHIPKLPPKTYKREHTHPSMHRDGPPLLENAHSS

[2] = target: T2, KRAS G12C and SOS1 proteins (Homo sapiens, UniProt Q07889); experiment: KRAS-G12C/SOS1 binding assay (HTRF); settings: Tag1-SOS1 / Tag2-KRAS G12C, 10 μM GTP
T2 construct: purchased Cisbio 63ADK000CB16PEG
T2 sequence (Q07889 1-1333): T1 sequence (Q07889 1-1333)
Protocol: KRAS-WT (or G12C/G12D/G12V)/SOS1 Binding Assay
Low IC50 values are indicative of high potency of the SOS1 inhibitor compounds in this assay setting.
The KRAS-WT (or G12C/G12D/G12V)/SOS1 binding assay is performed using an assay kit (Cisbio, Cat #63ADK000CB15PEG or 63ADK000CB16PEG/63ADK000CB17PEG/63ADK000CB18PEG) according to the procedure recommended by the manufacturer. • 1) Thaw and prepare the working solution of Tag1-SOS1 protein and Tag2-KRAS-WT (or G12C/G12D/G12V) protein with final concentration of 10 μM GTP (Sigma, Cat #V900868). • 2) Thaw and prepare the working solution of anti-Tag1-Tb^3+ anti-Tag2-XL665. • 3) Dispense 2 μL of serially diluted compound, 4 μL of Tag1-SOS1 protein and 4 μL of Tag2-KRAS-WT (or G12C/G12D/G12V) protein with GTP into a ProxiPlate-384 Plus, white 384-shallow well microplate (PerkinElmer, Cat #6008280). • 4) Incubate the plate for 15 minutes at room temperature. • 5) Dispense 10 μL of pre-mixed anti-Tag1-Tb^3+ and anti-Tag2-XL665 into the plate. • 6) Seal the plate and incubate for 2 hours at room temperature. • 7) Remove the plate sealer and read on PHERAstar FS (BMG LABTECH, PHERAstar FS). • 8) Calculate the ratio of the acceptor and donor emission signals for each individual well using the following equation.
[formula] • 9) IC50 values are fitted and calculated by HTRF signal values and log of compound concentrations to nonlinear regression [Log (inhibitor) vs. Response−Variable Slope (four parameters)] using the GraphPad Prism 8.0.

[3] = target: T3, KRAS-WT and SOS1 proteins (Homo sapiens, UniProt Q07889); experiment: KRAS-WT/SOS1 binding assay (HTRF); settings: Tag1-SOS1 / Tag2-KRAS-WT, 10 μM GTP, read-out: Activity Data in Kras: SOS1 Assay, Wild Type
T3 construct: purchased Cisbio 63ADK000CB15PEG
T3 sequence (Q07889 1-1333): T1 sequence (Q07889 1-1333)

Compound | IC50 [1] | IC50 [2] | IC50 [3]
COc1cc2c(cc1C1CCOCC1)c(N[C@H](C)c1cccc(C(F)(F)CO)c1)nc1ccnn12 [Example 51, (R)-2,2-difluoro-2-(3-(1-((8-methoxy-7-(tetrahydro-2H-pyran-4-yl)pyrazolo[1,5-a]quinazolin-5-yl)amino)ethyl)phenyl)ethanol] | 0.1 to 0.5 µM | 0.1 to 0.5 µM | 0.1 to 0.5 µM
C[C@@H](Nc1nc2ccnn2c2cc(=O)n(C3CCOCC3)cc12)c1cccc(C(F)(F)CO)c1 [Example 60, (R)-5-((1-(3-(1,1-difluoro-2-hydroxyethyl)phenyl)ethyl)amino)-7-(tetrahydro-2H-pyran-4-yl)pyrazolo[1,5-a]pyrido[3,4-e]pyrimidin-8(7H)-one] | < 0.1 µM | < 0.1 µM | < 0.1 µM
Cc1nc(N[C@H](C)c2cccc(C(F)(F)CO)c2)c2cc(C3CCOCC3)c3nncn3c2n1 [Example 2, (R)-2,2-difluoro-2-(3-(1-((2-methyl-6-(tetrahydro-2H-pyran-4-yl)-[1,2,4]triazolo[4′,3′:1,6]pyrido[2,3-d]pyrimidin-4-yl)amino)ethyl)phenyl)ethanol] | < 0.1 µM | < 0.1 µM | 
Cc1nc(N[C@H](C)c2cccc3c2CCC3(F)F)c2cc(C3CCOCC3)c3nncn3c2n1 [Example 1, N-[(1R)-1-(1,1-difluoro-2,3-dihydro-1H-inden-4-yl)ethyl]-12-methyl-7-(oxan-4-yl)-2,4,5,11,13-pentaazatricyclo[7.4.0.0^{2,6}]trideca-1(9),3,5,7,10,12-hexaen-10-amine] | < 0.1 µM | < 0.1 µM | 
COc1cc2c(cc1C1CCOCC1)c(N[C@H](C)c1cccc(C(F)F)c1F)nc1ccnn12 [Example 47, (R)-N-(1-(3-(difluoromethyl)-2-fluorophenyl)ethyl)-8-methoxy-7-(tetrahydro-2H-pyran-4-yl)pyrazolo[1,5-a]quinazolin-5-amine] | 0.5 to 5 µM | 0.5 to 5 µM | 0.1 to 0.5 µM
COc1cc2c(cc1-c1ccc(=O)n(C)c1)c(N[C@H](C)c1cccc3c1CCC3(F)F)nc1ccnn12 [Example 46, (R)-5-(5-((1-(1,1-difluoro-2,3-dihydro-1H-inden-4-yl)ethyl)amino)-8-methoxypyrazolo[1,5-a]quinazolin-7-y1)-1-methylpyridin-2(1H)-one] | 0.1 to 0.5 µM | 0.1 to 0.5 µM | < 0.1 µM
COc1cc2c(cc1C1CCOCC1)c(N[C@H](C)c1cccc3c1CCC3(F)F)nc1ccnn12 [Example 50, (R)-N-(1-(1,1-difluoro-2,3-dihydro-1H-inden-4-yl)ethyl)-8-methoxy-7-(tetrahydro-2H-pyran-4-yl)pyrazolo[1,5-a]quinazolin-5-amine] |  | 0.1 to 0.5 µM | 
COc1cc2c(cc1-c1ccc(=O)n(C)c1)c(N[C@H](C)c1cccc(C(F)(F)CO)c1)nc1ccnn12 [Example 45, (R)-5-(5-((1-(3-(1,1-difluoro-2-hydroxyethyl)phenyl)ethyl)amino)-8-methoxypyrazolo[1,5-a]quinazolin-7-yl)-1-methylpyridin-2(1H)-one] | < 0.1 µM | 0.1 to 0.5 µM | < 0.1 µM
C[C@@H](Nc1nc2ccnn2c2cc(=O)n(C3CCOCC3)cc12)c1cccc(C(F)F)c1F [Example 59, (R)-5-((1-(3-(difluoromethyl)-2-fluorophenyl)ethyl)amino)-7-(tetrahydro-2H-pyran-4-yl)pyrazolo[1,5-a]pyrido[3,4-e]pyrimidin-8(7H)-one] |  | < 0.1 µM | 
Cc1nc(N[C@H](C)c2cccc(C(F)F)c2F)c2cc(C3CCOCC3)c3nncn3c2n1 [Example 5, (R)-N-(1-(3-(difluoromethyl)-2-fluorophenyl)ethyl)-2-methyl-6-(tetrahydro-2H-pyran-4-yl)-[1,2,4]triazolo[4′,3′:1,6]pyrido[2,3-d]pyrimidin-4-amine] |  | < 0.1 µM | 
